Assay results from patent US8901038B2, “Biphenyl-substituted cyclic ketoenols” (Bayer CropScience AG, priority 2010, dated 2014).

Key:
Format in all cases: in vivo
[1] = tested on: caterpillars of the armyworm (Spodoptera frugiperda); experiment: Spodoptera frugiperda test (SPODFR spray treatment); settings: application rate 500 g/ha; maize leaf discs sprayed; after 7 days
Procedure: Spodoptera frugiperda Test (SPODFR Spray Treatment)
(§1) • Solvents: 78.0 parts by weight of acetone • 1.5 parts by weight of dimethylformamide • Emulsifier: 0.5 part by weight of alkylaryl polyglycol ether
To produce a suitable preparation of active compound, 1 part by weight of active compound is mixed with the stated amounts of solvent and emulsifier, and the concentrate is diluted with emulsified water to the desired concentration. Discs of maize leaves (Zea mays) are sprayed with an active compound preparation of the desired concentration and, after drying, populated with caterpillars of the armyworm (Spodoptera frugiperda).
After 7 days, the effect in % is determined. 100% means that all caterpillars have been killed; 0% means that none of the caterpillars have been killed.

[2] = tested on: greenhouse red spider mite (Tetranychus urticae); experiment: Tetranychus test; OP-resistant (TETRUR spray treatment); settings: application rate 100 g/ha; bean leaf discs sprayed; after 6 days
Procedure: Tetranychus Test; OP-Resistant (TETRUR Spray Treatment)
as §1
To produce a suitable preparation of active compound, 1 part by weight of active compound is mixed with the stated amounts of solvent and emulsifier, and the concentrate is diluted with emulsifier-containing water to the desired concentration. Discs of bean leaves (Phaseolus vulgaris), which are infested by all stages of the greenhouse red spider mite (Tetranychus urticae) are sprayed with an active compound preparation of the desired concentration.
After 6 days, the effect in % is determined. 100% means that all spider mites have been killed; 0% means that none of the spider mites have been killed.

[3] = tested on: green peach aphid (Myzus persicae); experiment: Myzus test (MYZUPE spray treatment); settings: Chinese cabbage leaf discs sprayed, after 6 days
Procedure: Myzus Test (MYZUPE Spray Treatment)
• Solvents: 78 parts by weight of acetone • 1.5 parts by weight of dimethylformamide • Emulsifier: 0.5 part by weight of alkylaryl polyglycol ether
To produce a suitable preparation of active compound, 1 part by weight of active compound is mixed with the stated amounts of solvent and emulsifier, and the concentrate is diluted with emulsifier-containing water to the desired concentration. Discs of Chinese cabbage (Brassica pekinensis) which are infested by all stages of the green peach aphid (Myzus persicae) are sprayed with an active compound preparation of the desired concentration. After 6 days, the effect in % is determined. 100% means that all aphids have been killed; 0% means that none of the aphids have been killed.

Boophilus microplus = Boophilus microplus test (BOOPMI injection); settings: application rate 20 μg/animal; injection into the abdomen; after 7 days
Procedure: Boophilus microplus Test (BOOPMI Injection)
(§2) • Solvent: Dimethyl sulphoxide
To produce a suitable preparation of active compound, 10 mg of active compound are mixed with 0.5 ml of solvent and the concentrate is diluted with solvent to the desired concentration. The solution of active compound is injected into the abdomen (Boophilus microplus) and the animals are transferred into dishes and stored in a climatized room. The efficacy is monitored for deposition of fertile eggs.
After 7 days, the effect in % is determined. 100% means that none of the ticks has laid any fertile eggs.

[4] = tested on: larvae of the mustard beetle (Phaedon cochleariae); experiment: Phaedon test (PHAECO spray treatment); settings: application rate 500 g/ha; Chinese cabbage leaf discs sprayed; after 7 days
Procedure: Phaedon Test (PHAECO Spray Treatment)
as §1
To produce a suitable preparation of active compound, one part by weight of active compound is mixed with the stated amounts of solvents and emulsifier, and the concentrate is diluted with emulsifier-containing water to the desired concentration. […].
After 7 days, the effect in % is determined. 100% means that all beetle larvae have been killed; 0% means that none of the beetle larvae have been killed.

Lucilia cuprina larvae = experiment: Lucilia cuprina test (LUCICU); settings: application rate 100 ppm; treated horse meat; after 2 days
Procedure: Lucilia cuprina test (LUCICU)
as §2
To produce a suitable preparation of active compound, 10 mg of active compound are mixed with 0.5 ml of dimethyl sulphoxide and the concentrate is diluted with water to the desired concentration. Containers containing horse meat treated with the active compound preparation of the desired concentration are populated with about 20 Lucilia cuprina larvae.
After 2 days, the kill in % is determined. 100% means that all larvae have been killed; 0% means that none of the larvae have been killed.

| SMILES | efficacy (caterpillars killed) [1] [%] | efficacy (spider mites killed) [2] [%] | efficacy (aphids killed) ([3]; application rate 500 g/ha) [%] | efficacy (deposition of fertile eggs) (Boophilus microplus) [%] | efficacy (beetle larvae killed) [4] [%] | efficacy (kill of larvae) (Lucilia cuprina larvae) [%] | efficacy (aphids killed) ([3]; application rate 100 g/ha) [%] |
| --- | --- | --- | --- | --- | --- | --- | --- |
| CCc1ccc(-c2ccc(Cl)cc2)c(C)c1C1=C(O)C2(CCOCC2)OC1=O [Example I-2-a-7] | 100 | 100 | 100 |  |  |  |  |
| CCc1ccc(-c2ccc(Cl)cc2)c(C)c1C1=C(O)C2(CCOCC2)NC1=O [Example I-1-a-3] | 80 | 90 | 100 | 80 | 100 |  |  |
| Cc1c(-c2ccc(Cl)cc2)ccc(Cl)c1C1=C(O)C2(CCOCC2)NC1=O [Example I-1-a-15] | 83 | 90 | 100 |  |  | 100 |  |
| CCc1ccc(-c2ccc(F)cc2)c(CC)c1C1=C(O)C2(CCOCC2)NC1=O [Example I-1-a-20] |  | 100 | 100 |  |  |  |  |
| O=C1NC2(CCOCC2)C(O)=C1c1c(Cl)ccc(-c2ccc(Cl)cc2)c1Cl [Example I-1-a-2] | 100 |  | 100 | 95 |  | 100 |  |
| CCc1c(-c2ccc(F)cc2)ccc(C)c1C1=C(O)C2(CCC(OC)CC2)NC1=O (stereo not drawn) [Example I-1-a-9] |  | 70 | 90 | 100 | 83 |  |  |
| CCc1ccc(-c2ccc(Cl)cc2)c(CC)c1C1=C(O)[C@]2(CC[C@@H](OC)CC2)OC1=O [Example I-2-a-2] |  |  | 90 |  |  |  |  |
| CCc1ccc(-c2ccc(Cl)cc2)c(CC)c1C1=C(O)[C@]2(CC[C@H](OC)CC2)OC1=O [Example I-2-a-1] |  | 100 | 90 |  | 100 |  |  |
| CCc1ccc(-c2ccc(F)cc2)c(C)c1C1=C(OC(=O)C(C)C)C2(CCC(OC)CC2)NC1=O (stereo not drawn) [Example I-1-b-3] |  | 100 | 90 |  |  |  |  |
| CCc1c(-c2ccc(F)cc2)ccc(C)c1C1=C(OC(=O)C(C)C)C2(CCC(OC)CC2)NC1=O (stereo not drawn) [Example I-1-b-2] |  |  | 90 |  |  |  |  |
| CCON1CCC2(CC1)NC(=O)C(c1c(CC)ccc(-c3ccc(Cl)cc3)c1C)=C2O [Example I-1-a-22] |  | 90 | 100 |  | 100 |  |  |
| CCc1c(-c2ccc(Cl)cc2)ccc(C)c1C1=C(O)C2(CCC(OC)CC2)NC1=O (stereo not drawn) [Example I-1-a-16] | 100 | 90 | 100 |  |  |  |  |
| CCc1ccc(-c2ccc(Cl)cc2)c(CC)c1C1=C(O)C2(CCC(OC)CC2)NC1=O (stereo not drawn) [Example I-1-a-19] |  | 90 |  |  | 100 |  |  |
| CCc1ccc(-c2ccc(Cl)cc2)c(C)c1C1=C(O)C2(CCC(OC)CC2)OC1=O (single isomer, unassigned) [Example I-2-a-6] |  | 100 | 100 |  | 100 |  |  |
| CCc1ccc(-c2ccc(F)cc2)c(CC)c1C1=C(O)C2(CCC(OC)CC2)NC1=O (stereo not drawn) [Example I-1-a-18] |  | 100 | 100 |  |  |  |  |
| CCOC(=O)OC1=C(c2c(CC)ccc(-c3ccc(F)cc3)c2C)C(=O)NC12CCC(OC)CC2 (single isomer, unassigned) [Example I-1-c-3] |  | 90 | 100 |  |  |  |  |
| CCc1cc(C)c(-c2ccc(Cl)cc2)c(C)c1C1=C(O)C2(CCC(OC)CC2)NC1=O (stereo not drawn) [Example I-1-a-7] |  | 90 |  |  | 100 |  | 90 |

| SMILES | efficacy (caterpillars killed) [1] [%] | efficacy (spider mites killed) [2] [%] | efficacy (aphids killed) ([3]; application rate 500 g/ha) [%] | efficacy (deposition of fertile eggs) (Boophilus microplus) [%] | efficacy (beetle larvae killed) [4] [%] | efficacy (kill of larvae) (Lucilia cuprina larvae) [%] | efficacy (aphids killed) ([3]; application rate 100 g/ha) [%] |
| --- | --- | --- | --- | --- | --- | --- | --- |
| CCc1c(-c2ccc(Cl)cc2)ccc(C)c1C1=C(O)C2(CCOCC2)NC1=O [Example I-1-a-17] |  | 100 | 100 |  |  |  |  |
| CCc1ccc(-c2ccc(Cl)cc2)c(CC)c1C1=C(O)C2(CCOCC2)NC1=O [Example I-1-a-1] |  | 80 | 100 |  | 100 |  |  |
| CCc1ccc(-c2ccc(Cl)cc2)c(C)c1C1=C(O)C2(CCC(OC)CC2)NC1=O (stereo not drawn) [Example I-1-a-21] |  | 100 | 100 |  |  |  |  |
| CCOC(=O)OC1=C(c2c(CC)ccc(-c3ccc(Cl)cc3)c2CC)C(=O)NC12CCOCC2 [Example I-1-c-1] |  |  | 90 |  |  |  |  |
| O=C1NC2(CCOCC2)C(O)=C1c1c(Cl)ccc(-c2ccc(F)cc2)c1Cl [Example I-1-a-6] |  | 100 | 100 | 90 |  |  |  |
| CCc1ccc(-c2ccc(Cl)cc2)c(CC)c1C1=C(O)C2(CCN(OC)CC2)NC1=O [Example I-1-a-24] |  | 100 |  |  |  |  |  |
| CCc1ccc(-c2ccc(Cl)cc2)c(CC)c1C1=C(O)C2(CCOCC2)OC1=O [Example I-2-a-3] |  | 100 | 90 |  |  |  |  |
| CCc1c(-c2ccc(F)cc2)ccc(C)c1C1=C(O)C2(CCOCC2)NC1=O [Example I-1-a-10] |  | 100 | 100 | 80 |  | 90 |  |
| CCc1ccc(-c2ccc(Cl)cc2)c(C)c1C1=C(O)C2(CCC(OC)CC2)OC1=O (single isomer, unassigned) [Example I-2-a-5] |  |  | 90 |  | 100 |  |  |
| CCc1ccc(-c2ccc(Cl)cc2)c(C)c1C1=C(OC(=O)C(C)C)C2(CCC(OC)CC2)NC1=O (stereo not drawn) [Example I-1-b-4] | 100 | 90 | 100 |  |  |  |  |
| CCc1ccc(-c2ccc(F)cc2)c(C)c1C1=C(O)C2(CCOCC2)NC1=O [Example I-1-a-5] |  | 90 | 100 |  |  |  |  |
| Cc1c(-c2ccc(F)cc2)ccc(Cl)c1C1=C(O)C2(CCOCC2)NC1=O [Example I-1-a-13] | 100 | 100 | 100 | 80 |  | 90 |  |
| CCc1ccc(-c2ccc(Cl)cc2)c(C)c1C1=C(O)C2(CCN(OC)CC2)NC1=O [Example I-1-a-23] |  | 90 | 100 |  | 100 |  |  |
| CCOC(=O)OC1=C(c2c(CC)ccc(-c3ccc(Cl)cc3)c2C)C(=O)NC12CCC(OC)CC2 (stereo not drawn) [Example I-1-c-2] |  | 100 | 100 |  |  |  |  |
| CCc1ccc(-c2ccc(F)cc2)c(C)c1C1=C(O)C2(CCC(OC)CC2)NC1=O (stereo not drawn) [Example I-1-a-4] |  | 100 | 90 |  | 83 |  |  |
| CCc1cc(C)c(-c2ccc(Cl)cc2)c(C)c1C1=C(O)C2(CCOCC2)NC1=O [Example I-1-a-8] |  | 90 | 100 |  | 100 |  |  |
| CCc1ccc(-c2ccc(Cl)cc2)c(CC)c1C1=C(OC(=O)C(C)C)C2(CCOCC2)NC1=O [Example I-1-b-1] | 83 | 80 |  |  |  |  |  |
